Entries after “also recorded” stand apart in the source; their conditions may differ.
How the values were obtained:
TAA treated mice [1] = assay: Eight-arm maze (cognitive function) in TAA treated mice; type: in vivo
TAA treated mice [2] = assay: Activity test in TAA treated mice; type: in vivo
TAA treated mice [3] = assay: Neurological score in TAA treated mice; type: in vivo
TAA treated mice [4] = assay: Liver function analysis of blood plasma in TAA treated mice; type: in vivo
TAA treated mice [5] = details: mouse, in vivo
glial cells = test system: glial cells; parameters: species or system mice; details: mouse, in vivo
BDL mice [6] = assay: Cognitive function in chronic liver failure induced by bile duct ligation (BDL); type: in vivo; details: BDL mice relative to sham; cannabidiol 5 mg/kg i.p. daily, evaluated 2 weeks post-surgery
BDL mice [7] = assay: Motor function in chronic liver failure induced by bile duct ligation (BDL); type: in vivo; details: BDL mice relative to sham; cannabidiol 5 mg/kg i.p. daily, evaluated 2 weeks post-surgery
IL-1β mRNA = assay: Hippocampal IL-1β mRNA level by RT-PCR in BDL mice; type: in vivo; details: cannabidiol 5 mg/kg i.p. daily for 3 weeks
malondialdehyde = assay: Oxidative stress (malondialdehyde) in liver tissue of BDL mice; type: in vivo; details: cannabidiol 5 mg/kg i.p. daily
AMPK [8] = assay: Hippocampal AMPK phosphorylation (immunoblot) in TAA-induced liver failure mice; type: in vivo
dopamine = assay: Brain catecholamine (dopamine) measurement by HPLC-ECD in TAA treated mice; type: in vivo
Description: (vi) Catecholamine measurements. Catecholamines were measured as described previously (Avraham et al, 1996). The assay for dopamine was performed by High Pressure Liquid Chromatography (HPLC) separation and detection using HPLC-electrochemical detection (ECD). Values are presented as concentration (ng/g tissue).

TAA treated CB2-KO mice = assay: Blood ALT and AST levels in TAA treated CB2-KO mice; type: in vivo
Description: (ii) Mice. Eight- to 10-week old female Sabra mice (29-32 g), obtained from the animal facility of the Hebrew University, Israel, were assigned at random to different groups of 10 mice per cage and were used in all experiments. All cages contained wood-chip bedding and were placed in a temperature-controlled room at 22° C., on a 12 h light/dark cycle (lights on at 07.00 a.m.). The mice had free access to water 24 h a day. The food provided was Purina chow, the animals were maintained in the animal facility (SPF unit) of the Hebrew University Hadassah Medical School, Jerusalem. CB-2 KO mice were provided by Prof. Zimmer, Institute of Molecular Psychiatry, University of Bonn, Germany.
(xi) Liver function analysis. Ammonia, bilirubin, ALT, AST, GGT and glucose were analyzed using standard analytical methods in the Hadassah Hospital Biochemistry Department, Jerusalem, Israel.

AMPK [9] = assay: Hippocampal AMPK phosphorylation (immunoblot) in control mice; type: in vivo; details: for hippocampal AMPK phosphorylation (activated AMPK): control mice
[10] = test system: CB1 and the CB2 receptors; details: previously known; cited from earlier work

For `COc1cc(CNC(=O)CCCC/C=C/C(C)C)ccc1O` [capsaicin], the “TAA-induced impaired cognitive function (eight arm maze)” value (TAA treated mice [1]) was “improved significantly; also recorded: significantly improves”, the activity performance (TAA treated mice [2]) was “restored; also recorded: significantly improves” and the neurological score (TAA treated mice [3]) was “improved; also recorded: significantly improves”. For the same compound, the “alanine transaminase (ALT) level” value (TAA treated mice [4]; TAA treated mice, blood) was “significantly reduces”, the “aspartate aminotransferase (AST) level” value (TAA treated mice [4]; TAA treated mice, blood) was “significantly reduces” and the “Apoptosis (frequency of cells showing apoptosis/necrosis in the liver)” value (TAA treated mice [5]) was “amelioration of TAA-induced apoptosis/necrosis reached statistical significance; also recorded: Decreased”. For the same compound, the “Inflammation (frequency of cells in the liver)” value (“Inflammation” for short) (TAA treated mice [5]) was “Decreased”, the “Regeneration (frequency of cells in the liver)” value (shortened to “Regeneration”) (TAA treated mice [5]) was “significantly less hepatic regeneration; also recorded: Decreased” and the “astrogliosis, direction of change (GFAP staining, hippocampus)” value (“astrogliosis, direction of change” below) (glial cells) was “prevented; also recorded: reduced astrogliosis; also recorded: minimal; also recorded: Decrease (p < 0.001)”.
In the case of `C=C(C)[C@@H]1CCC(C)=C[C@H]1c1c(O)cc(CCCCC)cc1O` [cannabidiol], the “cognitive impairment (eight arm maze AUC)” value (BDL mice [6]) is reported as “restored; also recorded: reversed”, the “motor impairment (motor activity)” value (BDL mice [7]) is reported as “restored; also recorded: reversed” and the “IL-1β mRNA level in the hippocampus (normalized to L19 mRNA)” value (IL-1β mRNA) is reported as “restored; also recorded: reversed”. The “oxidative stress in the liver (malondialdehyde)” value (malondialdehyde) was “restored; also recorded: reversed”.
In the case of `NC(=O)c1ncn([C@@H]2O[C@H](CO)[C@@H](O)[C@H]2O)c1N` [AICAR, 5-aminoimidazole-4-carboxamide ribonucleoside], the AMPK activation (AMPK [8]; TAA treated mice, AICAR treatment) is reported as “augmented AMPK activation”, the brain dopamine concentration (dopamine) is reported as “restored levels to normal” and the “alanine transaminase (ALT) level” value (TAA treated mice [4]; TAA treated mice, blood) is reported as “Neither AICAR nor THC ameliorated these markers”. For the same compound, the “aspartate aminotransferase (AST) level” value (TAA treated mice [4]; TAA treated mice, blood) was “Neither AICAR nor THC ameliorated these markers”, the ammonia level (TAA treated mice [4]; TAA treated mice, blood plasma) was “no effect” and the bilirubin level (TAA treated mice [4]; TAA treated mice, blood plasma) was “Neither AICAR nor THC ameliorated these markers”. The “gamma-glutamyltransferase (GGT) level” value (TAA treated mice [4]; TAA treated mice, blood plasma) was “Neither AICAR nor THC ameliorated these markers”.
For SR144528, the “alanine transaminase (ALT) level” value (TAA treated mice [4]; TAA treated mice, blood) was “significantly reduced”, the “aspartate aminotransferase (AST) level” value (TAA treated mice [4]; TAA treated mice, blood) was “significantly reduced” and the “Inflammation” value (TAA treated mice [5]) was “non-significant changes”. The “Regeneration” value (TAA treated mice [5]) was “Increased”.
With `CCCCCCC(C)(C)c1cc(OC)c([C@@H]2C=C(CO)[C@@H]3C[C@H]2C3(C)C)c(OC)c1` [HU-308] the “alanine transaminase (ALT) level” value (TAA treated mice [4]; TAA treated mice, blood) was “significantly reduced”, the “aspartate aminotransferase (AST) level” value (TAA treated mice [4]; TAA treated mice, blood) was “significantly reduced” and the “influence of the co-administered agent on the other agent's reduction of ALT and AST levels” value (TAA treated mice [4]; TAA treated mice, co-administration) was “did not counteract the effect of SR144528”. The “Inflammation” value (TAA treated mice [5]) was “reduced; also recorded: Decreased”, the “Regeneration” value (TAA treated mice [5]) was “Increased” and the “astrogliosis, direction of change” value (glial cells) was “prevented; also recorded: Decrease (p < 0.001)”.
For `CCCCC/C=C\C/C=C\C/C=C\C/C=C\CCCC(=O)OC(CO)CO` [2-AG, 2-arachidonoylglycerol], the “alanine transaminase (ALT) level” value (TAA treated mice [4]; mouse, in vivo) was “significantly reduced”, the “aspartate aminotransferase (AST) level” value (TAA treated mice [4]; mouse, in vivo) was “significantly reduced” and the “influence of the co-administered agent on the other agent's reduction of ALT and AST levels” value (TAA treated mice [4]; mouse, in vivo) was “did not counteract the effect of SR141716A or SR144528”. The “Inflammation” value (TAA treated mice [5]) was “Decreased”, the “Regeneration” value (TAA treated mice [5]) was “Increased” and the ALT level (TAA treated CB2-KO mice) was “modestly but significantly reduced”. For the same compound, the AST level (TAA treated CB2-KO mice) was “effective in reducing its level”, the “cognitive impairment (eight arm maze AUC)” value (BDL mice [6]) was “effectively reversed” and the “motor impairment (motor activity)” value (BDL mice [7]) was “failed to reverse”.
With `CCCCCc1cc(O)c2c(c1)OC(C)(C)[C@@H]1CCC(C)=C[C@@H]21` [THC, (−)-(6aR,10aR)-6,6,9-trimethyl-3-pentyl-6a,7,8,10a-tetrahydro-6H-benzo[c]chromen-1-ol] the “hippocampal AMPK phosphorylation (activated AMPK)” value (shortened to “hippocampal AMPK phosphorylation”) (AMPK [9]; higher concentrations of THC (up to 10 mg/kg)) was “dose dependent elevation in activated enzyme”, the “hippocampal AMPK phosphorylation” value (AMPK [9]; low levels of THC (less than 0.1 mg/kg)) was “reduced the level of activated AMPK” and the “quantity of THC required to activate AMPK” value (AMPK [9]; healthy animals) was 10 mg/kg. For the same compound, the “hippocampal AMPK phosphorylation” value (AMPK [8]; TAA treated mice, 0.01 mg/kg THC) was “inactivating effect”, the “AMPK activation in brain at end of behavioral studies” value (AMPK [8]; TAA treated mice, 0.1 mg/kg THC daily for 5 days, 0.1 mg/kg) was “activates AMPK; also recorded: Amplification of AMPK activation” and the “hippocampal AMPK phosphorylation” value (AMPK [8]; TAA treated mice, 0.1 mg/kg THC, 0.1 mg/kg) was “AMPK activation was achieved; also recorded: augmented AMPK activation”. The “quantity of THC required to activate AMPK” value (AMPK [8]; experimental hepatic encephalopathy animals) was 0.1 mg/kg, the “TAA-induced impaired cognitive function (eight arm maze)” value (TAA treated mice [1]) was “improved significantly” and the activity performance (TAA treated mice [2]) was “restored”. For the same compound, the neurological score (TAA treated mice [3]) was “improved”, the brain dopamine concentration (dopamine) was “restored levels to normal” and the “alanine transaminase (ALT) level” value (TAA treated mice [4]; mouse, in vivo) was “Neither AICAR nor THC ameliorated these markers”. The ammonia level (TAA treated mice [4]; mouse, in vivo) was “no effect”, the “aspartate aminotransferase (AST) level” value (TAA treated mice [4]; mouse, in vivo) was “Neither AICAR nor THC ameliorated these markers” and the bilirubin level (TAA treated mice [4]; mouse, in vivo) was “Neither AICAR nor THC ameliorated these markers”. The “gamma-glutamyltransferase (GGT) level” value (TAA treated mice [4]; mouse, in vivo) was “Neither AICAR nor THC ameliorated these markers” and the “affinity to CB1 versus CB2 receptors” value [10] was “about equal affinity”.
In the case of `Oc1cc2c(cc1O)CN(C(=S)NCCc1ccc(Cl)cc1)CCC2` [capsazepine], the “influence of the co-administered agent on the other agent's reduction of ALT and AST levels” value (TAA treated mice [4]; mouse, in vivo) is reported as “abolishment of the effect of capsaicin”.
For `Cc1c(C(=O)NN2CCCCC2)nn(-c2ccc(Cl)cc2Cl)c1-c1ccc(Cl)cc1` [SR141716A], the “alanine transaminase (ALT) level” value (TAA treated mice [4]; mouse, in vivo) was “significantly reduced”, the “aspartate aminotransferase (AST) level” value (TAA treated mice [4]; mouse, in vivo) was “significantly reduced” and the “Inflammation” value (TAA treated mice [5]) was “reduced; also recorded: Decreased”. For the same compound, the “Regeneration” value (TAA treated mice [5]) was “Increased”, the AST level (TAA treated CB2-KO mice) was “effective in reducing its level” and the “influence of co-administration on the ALT effect of 2-AG” value (TAA treated CB2-KO mice; 2-AG + SR141716A) was “blocked the effect of 2-AG”. For the same compound, the “influence of co-administration on the AST effect of 2-AG” value (TAA treated CB2-KO mice; 2-AG + SR141716A) was “abolished the effect of 2-AG” and the “astrogliosis, direction of change” value (glial cells) was “prevented; also recorded: Decrease (p < 0.001)”.

Reference: patent US10166202B2, “Treatment of hepatic encephalopathy and liver cirrhosis” (Yissum Research Development Company of the Hebrew …, priority 2006, dated 2019)
